Values of other authors, collected in paper PMC12308805, “Ultrahigh-Throughput Virtual Screening Strategies against PPI Targets: A Case Study of STAT Inhibitors” (Journal of Chemical Information and Modeling, 2025).
Like-named read-outs stand apart in the source and are kept apart here. Square brackets hold non-standard residues; d marks the D form. Peptide text beside a SMILES is read from it. pY = N[C@@H](Cc1ccc(OP(=O)(O)O)cc1)C(=O)O

System: STAT3
Details: sheet 6QHD_actives_decoys, cited from earlier work; for Type: retrospective screening set for STAT3 SH2 domain (PDB 6QHD), ref DUD-E; for Type (known STAT3 active): known STAT3 actives of the retrospective screening set, ref ChEMBL / literature
[1] = decoys are presumed inactives, not tested
[2] = decoys generated with DUD-E and presumed inactive, not tested

Row | Compound | Type [2] | also measured
1 | COc1cc(/C=N/N=C2\NC(=O)[C@H](CC(=O)O)S2)cc(Br)c1OS(=O)(=O)c1ccc(NC(C)=O)cc1 [Decoy786] | – | Type [1]: Inactive (Decoy)
2 | C=C(CO[C@H]1[C@H](O)[C@H](CO)O[C@@H](OCC#Cc2ccc(O)c(C(=O)OC)c2)[C@H]1NC(C)=O)C(=O)OCC [Decoy507] | Inactive (Decoy) | –
3 | CC(C)NC(=O)[C@H](CCC(N)=O)NC(=O)[C@@H]1Cc2cccc3c2N1C(=O)[C@@H](NC(=O)/C=C/c1ccc(OP(=O)(O)O)cc1)CC3 [CHEMBL447460] | – | Type (known STAT3 active): Active
4 | CC(=O)Nc1ccc(S(=O)(=O)N(CCN2CCOCC2)CC(=O)N(Cc2ccc3c(c2)OCO3)Cc2ccc(C)o2)cc1 [Decoy727] | Inactive (Decoy) | –
5 | O=C(CCCCCNC(=O)CCCC[C@H]1SC[C@H]2NC(=O)N[C@@H]21)NC/C=C/c1cn([C@@H]2O[C@@H](CO[P@](=O)(O)O[P@](=O)(O)OP(=O)(O)O)[C@@H](O)[C@H]2O)c(=O)nc1O [Decoy440] | Inactive (Decoy) | –
6 | CCN(CC)S(=O)(=O)c1cccc(-c2nnc(SCC(=O)Nc3cc(C)cc(C)c3)n2N)c1 [Decoy726] | Inactive (Decoy) | –
7 | COC(=O)c1ccc(C(=O)OC)c(NC(=O)c2ccc(C(=O)Nc3cc(C(=O)OC)ccc3C(=O)OC)cc2)c1 [Decoy335] | Inactive (Decoy) | –
8 | COc1cc(Cc2cc(OC)c(OC)cc2NS(=O)(=O)c2ccc3c(c2)NC(=O)CO3)c(NS(=O)(=O)c2ccc3c(c2)NC(=O)CO3)cc1OC [Decoy940] | – | Type [1]: Inactive (Decoy)
9 | CCOC(=O)c1ccc(N2C(=O)[C@@H](CC(=O)Nc3ccc(OCC)cc3)N(CCc3ccncc3)C2=S)cc1 [Decoy677] | Inactive (Decoy) | –
10 | COC(=O)[C@@H]1O[C@H](OC/C(=N/NC(N)=O)[C@H]2CC[C@@H]3[C@@H]4CC[C@@H]5C[C@H](OC(C)=O)CC[C@@]5(C)[C@H]4C(=O)C[C@@]23C)[C@@H](OC(C)=O)[C@H](OC(C)=O)[C@H]1OC(C)=O [Decoy497] | Inactive (Decoy) | –
11 | CC(=O)O[C@H]1[C@@H](O)[C@H](CO)O[C@H](O[C@@H](/C=N\C23CC4CC(CC(C4)C2)C3)[C@@H](CO)O[C@H](O)/C=N/C23CC4CC(CC(C4)C2)C3)[C@@H]1O [Decoy407] | Inactive (Decoy) | –
12 | COc1ccc(CCNc2ccc3nnc(CCNS(=O)(=O)c4ccc(C)cc4)n3n2)cc1OC [Decoy586] | Inactive (Decoy) | –
13 | CCOC(=O)c1ccc(NC(=O)CSc2nnc(CNC(=O)COc3ccccc3)n2-c2cccc(C)c2)cc1 [Decoy473] | Inactive (Decoy) | –
14 | CC(C)N(C(=O)c1ccc(C(=O)Nc2cccc(NC(=O)c3ccc(C(=O)N(C(C)C)C(C)C)cc3)n2)cc1)C(C)C [Decoy874] | – | Type [1]: Inactive (Decoy)
15 | CCc1ccc(NC(=O)CSC2=C(C#N)[C@H](c3ccco3)C(C(=O)Nc3ccc(S(N)(=O)=O)cc3)=C(C)N2)cc1 [Decoy855] | – | Type [1]: Inactive (Decoy)
16 | CSCC[C@@H](NC(=O)[C@H](N)Cc1ccc(O)cc1)C(=O)N[C@H](Cc1ccccc1)C(=O)N[C@H](Cc1c[nH]cn1)C(=O)N[C@@H](CC(C)C)C(=O)N[C@H](CCSC)C(=O)N[C@@H](CC(=O)O)C(N)=O [Decoy814] (H-[dY][dM][dF][dH]L[dM]D-NH2) | – | Type [1]: Inactive (Decoy)
17 | Nc1ccc2cc(S(=O)(=O)O)cc(O)c2c1/N=N/c1ccccc1S(=O)(=O)NCC1CCCCC1 [Decoy501] | Inactive (Decoy) | –
18 | NS(=O)(=O)c1ccc(CCNC(=O)CCCCCn2c(=S)[nH]c3ccc(N4CCOCC4)cc3c2=O)cc1 [Decoy490] | Inactive (Decoy) | –
19 | CC(=O)N[C@@H]1[C@H]([C@H](O)[C@H](O)CO)O[C@@](O[C@H]2[C@@H](O)[C@@H](O[C@@H]([C@@H](O[C@@H]3O[C@@H](C)[C@@H](O)[C@H](O)[C@@H]3O)[C@H](O)C=O)[C@H](O)CO)O[C@@H](CO)[C@H]2O)(C(=O)O)C[C@@H]1O [Decoy381] | Inactive (Decoy) | –
20 | COc1ccccc1/C=C/C(=O)NC(=S)Nc1ccc(S(=O)(=O)Nc2cc(C)on2)cc1 [Decoy519] | – | Type ([…]): Inactive (Decoy)
21 | O=C(O)CN(CC(=O)O)Cc1cc2c(cc1O)Oc1cc(O)c(CN(CC(=O)O)CC(=O)O)cc1C21OC(=O)c2ccccc21 [Decoy739] | – | Type [1]: Inactive (Decoy)
22 | COc1ccc2cc([C@H](c3nnnn3C(C)(C)C)N(CCc3ccc(OC)c(OC)c3)Cc3ccccc3)c(=O)[nH]c2c1 [Decoy776] | – | Type [1]: Inactive (Decoy)
23 | CC[C@@H]1Oc2ccc(S(=O)(=O)N3CCN(C(=O)CNC(=O)c4cccs4)CC3)cc2NC1=O [Decoy604] | Inactive (Decoy) | –
24 | O=c1c(C[C@H](O)CN2CCOCC2)c(O)n(C[C@H](O)CN2CCOCC2)c(=O)n1C[C@H](O)CN1CCOCC1 [Decoy680] | – | Type ([…]): Inactive (Decoy)
25 | CCN(CC)c1ccc(/C=N/Nc2nnc(SCC(=O)Nc3ccc(OC)cc3OC)n2N)c(O)c1 [Decoy877] | – | Type [1]: Inactive (Decoy)
26 | Cc1nnc(SCC2=C(C(=O)NCC(C)C)N3C(=O)[C@H](NC(=O)c4nn(C)c(C)c4Br)[C@H]3SC2)s1 [Decoy523] | Inactive (Decoy) | –
27 | COc1cc(-c2nnc(SCC(=O)N/N=C/c3cccc(O)c3)n2-c2ccccc2)cc(OC)c1OC [Decoy474] | Inactive (Decoy) | –

Row | Compound | Type [2] | also measured
28 | CCCCCCCCO[C@@H]1[C@@H](O)[C@@H](O)O[C@H](Cn2c(=O)n(C[C@H]3O[C@H](O)[C@H](O)[C@@H](OCCCCCCCC)[C@@H]3O)c3cc(Cl)ccc32)[C@H]1O [Decoy956] | – | Type [1]: Inactive (Decoy)
29 | CCNS(=O)(=O)c1ccc(C)c(C(=O)OCC(=O)NNC(=O)c2ccccc2Cl)c1 [Decoy518] | Inactive (Decoy) | –
30 | C=C[C@H]1[C@H](O[C@H]2O[C@@H](CO)[C@@H](O)[C@@H](O)[C@H]2O)OC=C(C(=O)OC)[C@H]1CCOC(=O)c1cc(O)c(O)c(O)c1 [Decoy700] | Inactive (Decoy) | –
31 | CCOCCOc1ccccc1C(=O)N/C(S)=N\NC(=O)COc1ccc([N+](=O)[O-])cc1 [Decoy631] | Inactive (Decoy) | –
32 | O=C(CCN(Cc1ccco1)S(=O)(=O)c1ccc(Cl)cc1)NNC(=O)Nc1ccc(OC(F)(F)F)cc1 [Decoy374] | Inactive (Decoy) | –
33 | CCOC(=O)c1ccc(NC(=O)COc2cc(Br)c([C@H]3NC(=S)N=C(C)/C3=C(/O)OC)cc2OC)cc1 [Decoy489] | Inactive (Decoy) | –
34 | C[N+]1=C(/C=C/C=C2/N(CCCCC(=O)NCCOCCOCCNCCO[C@H]3O[C@@H](CO)[C@@H](O)[C@H](O)[C@@H]3O)c3ccccc3C2(C)C)C(C)(C)c2ccccc21 [Decoy588] | Inactive (Decoy) | –
35 | CNC(=O)Cn1c(=O)[nH]c(NC)c(C(c2ccc(Cl)cc2)c2c(NC)[nH]c(=O)n(CC(=O)NC)c2=O)c1=O [Decoy363] | Inactive (Decoy) | –
36 | CCCCCCCCCC(=O)O[C@@H]1[C@@H](O[C@@]2(CO)O[C@@H](CO)[C@@H](O)[C@H]2OC(=O)C(C)C)O[C@@H](CO)[C@@H](OC(=O)C(C)C)[C@H]1OC(=O)C(C)C [Decoy627] | Inactive (Decoy) | –
37 | CCCCCCCCO[C@@H]1[C@@H](O)[C@H](O)O[C@H](Cn2c(=O)n(C[C@H]3O[C@@H](O)[C@H](O)[C@@H](OCCCCCCCC)[C@@H]3O)c3cc(Cl)ccc32)[C@H]1O [Decoy957] | – | Type [1]: Inactive (Decoy)
38 | C=CCOC(=O)c1sc(NC(=O)[C@@H](C)n2c(N)nnc2SCc2ccccc2Cl)nc1C [Decoy562] | Inactive (Decoy) | –
39 | O=C(CCCCC(=O)Nc1ccc(S(=O)(=O)N2CCCCC2)cc1)Nc1ccc(S(=O)(=O)N2CCCCC2)cc1 [Decoy771] | – | Type [1]: Inactive (Decoy)
40 | Cc1nn(C)c(C)c1CCCN(C)c1ccc(NS(=O)(=O)c2ccc(C(C)C)cc2)cc1C(=O)O [Decoy642] | Inactive (Decoy) | –
41 | CC(=O)O[C@@H]1[C@@H](O)[C@@H](O[C@@H](/C=N\C23CN4CN(CN(C4)C2)C3)[C@@H](CO)O[C@H](O)/C=N/C23CN4CN(CN(C4)C2)C3)O[C@@H](CO)[C@H]1O [Decoy408] | Inactive (Decoy) | –
42 | CCOC(=O)c1[nH]c(C)c(C(=O)C2=C(O)C(=O)N(CCCn3ccnc3)[C@H]2c2cc(OC)c(OC)c(OC)c2)c1C [Decoy756] | – | Type [1]: Inactive (Decoy)
43 | CCCCCCCCCC(=O)O[C@@H]1[C@@H](O[C@@]2(CO)O[C@@H](CO)[C@@H](O)[C@H]2O)O[C@@H](CO)[C@@H](OC(=O)C(C)C)[C@H]1OC(=O)C(C)C [Decoy420] | Inactive (Decoy) | –
44 | COc1ccccc1OCCNC[C@H](O)COc1cccc2c1c1ccccc1n2C[C@H](O)COc1cccc2[nH]c3ccccc3c12 [Decoy900] | – | Type [1]: Inactive (Decoy)
45 | CC(C)C[C@H](NC(=O)[C@H](Cc1ccc(OP(=O)(O)O)cc1)NC(=O)CCc1ccccc1)C(=O)N1C[C@H]2C[C@H]2[C@H]1C(=O)N[C@@H](CCC(N)=O)C(=O)NCc1ccccc1 [CHEMBL370763] | – | Type (known STAT3 active): Active
46 | CCOc1ccc(-n2c(CNC(=O)c3ccc(S(=O)(=O)N(C)C)cc3)nnc2SCC(=O)Nc2cccc(C)c2)cc1 [Decoy520] | Inactive (Decoy) | –
47 | COc1cc(-c2nnc(SCC(=O)N/N=C/c3cc(OC)c(OC(C)=O)c(OC)c3)n2-c2ccccc2)cc(OC)c1OC [Decoy928] | – | Type [1]: Inactive (Decoy)
48 | CC(C)C[C@H](NC(=O)/C=C/c1ccc(OP(=O)(O)O)cc1)C(=O)N1C[C@H]2C[C@H]2[C@H]1C(=O)NCCOCc1ccccc1 [CHEMBL583728] | – | Type (known STAT3 active): Active
49 | C=CCn1c(SCC(=O)Nc2sc(C(N)=O)c(C)c2C(=O)OC)nnc1-c1ccc(N(C)C)cc1 [Decoy380] | Inactive (Decoy) | –
50 | CC(=O)N[C@@H](Cc1ccc(OP(=O)(O)O)cc1)C(=O)N[C@@H](CC(C)C)C(=O)N1CCC[C@H]1C(=O)N[C@H](CCC(N)=O)C(N)=O [CHEMBL160658] (Ac-[pY]LP[dQ]-NH2) | – | Type (known STAT3 active): Active
51 | COc1cc(/C=N\NC(=O)N/N=C/c2cc(OC)c(O)c([N+](=O)[O-])c2)cc([N+](=O)[O-])c1O [Decoy599] | – | Type ([…]): Inactive (Decoy)
52 | COc1ccc(N/C(=N/C(=O)c2ccc(OC)c(OC)c2)NCCc2c(C)nn(C)c2C)cc1OC [Decoy827] | – | Type [1]: Inactive (Decoy)
53 | COc1cc(NC(=S)/N=C(/NCCCN2CCOCC2)Nc2nc(C)cc(C)n2)cc(OC)c1OC [Decoy386] | Inactive (Decoy) | –
